Laboratory results: article PMC11177969, “Comprehensive Analyses of the Effects of the Small-Molecule Inhibitor of the UHM Domain in the Splicing Factor U2AF1 in Leukemia Cells” (Research Square, 2024)
Read-outs that look alike come from different tables or passages of the source. Blank lines part the entries; values can stand above or below the compound they belong to.

Tests used:
[1] = target: T1, U2AF1-UHM (Homo sapiens, UniProt Q01081); experiment: HTRF assay, inhibition of binding between U2AF1-UHM and U2AF2-ULM
T1 construct: we screened the CCG fragment library from University of Michigan against the U2AF1-UHM domain using the Thermal Shift Assay (TSA)
T1 sequence (Q01081 65-147 limits assumed): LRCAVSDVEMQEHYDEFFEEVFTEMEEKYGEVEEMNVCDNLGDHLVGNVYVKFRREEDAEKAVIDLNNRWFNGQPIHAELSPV
Text: TSA data provided no information of the binding site in U2AF1-UHM. To identify the binding sites of both hits to U2AF1-UHM, we synthesized CCG211578 (named Hit1/SF1–8) and CCG210084 (named Hit2/9 in Fig.2C) and asked if they inhibited the binding between U2AF1-UHM and U2AF2-ULM using our previously developed HTRF assay.[42] […] The IC50 values of SF1–8 and Hit2 correlated with the ΔTm values observed in TSA. We have reported that the conserved Trp binding site in U2AF1-UHM dominated the binding affinity between U2AF2-ULM and U2AF1-UH.[42]

[2] = target: T2, SPF45-UHM (Homo sapiens, UniProt Q96I25); experiment: HTRF assay; assay type: binding; conditions: Fig. 2C; SD of 2 independent experiments in parentheses
T2 sequence (Q96I25 306-385 limits assumed): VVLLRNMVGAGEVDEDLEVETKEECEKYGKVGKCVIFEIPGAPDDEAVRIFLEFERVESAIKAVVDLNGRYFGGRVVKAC
Text: (§1) To determine the selectivity of SF1–8 against other homologous UHM domains, we measured the IC50 values of SF1–8 to RBM39-UHM, SPF45-UHM and PUF60-UHM using the HTRF assay.[42] […] In the chemical synthesis (Scheme S1), methylation on the pyrazole group in SF1–8 can occur at the N8 or N9 position (Fig.2C). Although the NMR spectra can be used to infer the methyl group position on the pyrazole, we determined the crystal structure of a SF1–8 precursor to clearly confirm the methyl group is at N9 in SF1–8 (Fig.2C). To further probe the interaction of SF1–8 with U2AF1-UHM, we synthesized SF1–8 analogs and developed the structure activity relationship (SAR) (Fig.2C). […] A longer alkyl group was tolerated at the N8 position but not at the N9 position. […] The crystal structure of a 7c precursor experimentally determined from SCXRD again confirmed the location of the propyl group (Fig. 2C).

[3] = target: T3, PUF60-UHM (Homo sapiens, UniProt Q9UHX1); experiment: HTRF assay; assay type: binding; conditions: Fig. 2C
T3 sequence (Q9UHX1 462-549 limits assumed): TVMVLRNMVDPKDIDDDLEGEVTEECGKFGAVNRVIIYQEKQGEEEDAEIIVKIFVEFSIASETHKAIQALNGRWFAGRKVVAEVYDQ
Text: as §1

[4] = target: T4, RBM39-UHM (Homo sapiens, UniProt Q14498); experiment: HTRF assay; assay type: binding; conditions: Fig. 2C; SD of 2 independent experiments in parentheses
T4 sequence (Q14498 445-508 limits assumed): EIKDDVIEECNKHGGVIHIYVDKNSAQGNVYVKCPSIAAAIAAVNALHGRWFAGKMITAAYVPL
Text: as §1

[5] = target: T1, U2AF1-UHM; experiment: Thermal Shift Assay (TSA) fragment library screening; assay type: binding; conditions: confirmatory screening in triplicate, read-out: ΔTm (melting temperature change) of U2AF1-UHM
Description: To develop a different targeting strategy, we assessed potential tractable binding sites in U2AF1 using computational analysis and determined that the UHM domain of U2AF1 was for identifying hits (Fig.S1).[42] To discover hits, we screened the CCG fragment library from University of Michigan against the U2AF1-UHM domain using the Thermal Shift Assay (TSA). An initial single concentration screening at 200 μM led to identify 149 compounds that gave positive shifts of the melting temperature (ΔTm) in U2AF1-UHM. These compounds were subject to a secondary confirmatory screening in triplicate at 200 μM.

[6] = system: MV-4–11; experiment: Growth inhibition titration (CellTiter-Glo); assay type: cell-based; conditions: Homo sapiens, MV4-11; native cell line carrying U2AF1^wt
Text: (§2) Previous studies that introduced U2AF1^S34F in lung epithelial (HBEC3kt)[43], leukemia (K562)[38],[44],[45], and iPSC[37] cell lines have validated the function of U2AF1^S34F in these engineered cell lines while mutation of Q157 is less studied. We therefore focused our study on U2AF1^S34F and examined the effects of SF1–8 on a panel of leukemia cell lines including K562, U937, HL60 with isogenic overexpression of U2AF1^wt or U2AF1^S34F, K562 with isogenic overexpression of SRSF2^wt or SRSF2^P95H, and K562 with Crispr/Cas9 edited SF3B1^wt or SF3B1^E700K (denoted as K562-U2AF1^wt, K562-U2AF1^S34F, U937-U2AF1^wt, U937-U2AF1^S34F, HL60-U2AF1^wt, HL60-U2AF1^S34F, K562-SRSF2^wt, K562-SRSF2^P95H, K562-SF3B1^wt, K562-SF3B1^E700K). […] The data obtained from the engineered leukemia cell lines prompted us to query the activity of SF1–8 in primary MDS cells.
(§3) Figure 3. Growth inhibition activities of SF1–8 in U2AF1, SF3B1, SRSF2 mutant, wild-type leukemia cell lines (A) Dose dependent growth inhibition of U2AF1^S34F, SF3B1^E700K, SRSF2^P95H mutant and isogenic wild-type cell lines by the treatment of SF1–8. (B) Titration of SF1–8 against K562-U2AF1^wt, K562-U2AF1^S34F, MV4–11, HL60 cells using the CellTiter-Glo assay. (C) Toxicity of SF1–8 in human primary MDS cells (U2AF1^S34F) and healthy bone marrow cells.

[7] = system: HL-60; experiment: Growth inhibition titration (CellTiter-Glo); assay type: cell-based; conditions: Homo sapiens, native cell line carrying U2AF1^wt
Text: as §2, §3

[8] = system: bone marrow cells of healthy control; experiment: Colony formation assay; assay type: cell-based, human; conditions: 1 to 20 μM
Text: as §2

[9] = system: K562-SRSF2^P95H; experiment: Dose dependent growth inhibition; assay type: cell-based; conditions: Fig. 3A
Text: as §2, §3

[10] = system: HL60-U2AF1^wt; experiment: Dose dependent growth inhibition; assay type: cell-based; conditions: Fig. 3A
Text: as §2, §3

[11] = system: K562-SRSF2^wt; experiment: Dose dependent growth inhibition; assay type: cell-based; conditions: Fig. 3A
Text: as §2, §3

[12] = system: K562-SF3B1^wt; experiment: Dose dependent growth inhibition; assay type: cell-based; conditions: Fig. 3A
Text: as §2, §3

[13] = system: K562-SF3B1^E700K; experiment: Dose dependent growth inhibition; assay type: cell-based; conditions: Fig. 3A
Text: as §2, §3

[14] = system: U937-U2AF1^S34F; experiment: Dose dependent growth inhibition; assay type: cell-based; conditions: Fig. 3A
Text: as §2, §3

[15] = system: HL60-U2AF1^S34F; experiment: Dose dependent growth inhibition; assay type: cell-based; conditions: Fig. 3A
Text: as §2, §3

[16] = system: U937-U2AF1^wt; experiment: Dose dependent growth inhibition; assay type: cell-based; conditions: Fig. 3A
Text: as §2, §3

[17] = system: bone marrow cells from an MDS specimen that harbored U2AF1^S34F; experiment: Toxicity in primary MDS cells; assay type: cell-based; conditions: Homo sapiens, Bone marrow cell, U2AF1^S34F VAF 41%, read-out: viable cells
Text: as §2, §3

[18] = system: K562-U2AF1^S34F cells; experiment: Western blots of select genes; assay type: cell-based; conditions: western blot
Text: To understand the underlying mechanisms of the differential effects of SF1–8 on K562-U2AF1^S34F, we performed an RNA-seq experiment on K562-U2AF1^S34F cells treated with SF1–8 and control (Fig.4). […] When the 99 genes were mapped to KEGG pathways, the top six enriched pathways were protein digestion and absorption, extracellular matrix-receptor interaction, focal adhesion, PI3K-Akt signaling pathway, human papillomavirus infection, and AGE-RAGE signaling pathway (Fig.S2). To determine if the protein levels of these genes were affected by their mRNA changes, we performed the western blots of select genes. […] Because of the role U2AF1 in RNA splicing, we asked if analysis of the isoform pattern changes may provide insight to explain the different observations between RNA-seq and western blot data. In the transcript analysis, we identified low FPKM numbers of three BCL2 transcripts (Fig.S3) that explained the relatively low BCL2 protein levels in K562. A significant increase of the BCL-2b transcript was also found. […] Besides BCL2, BCLXL (encoded by BCL2L1) and MCL1 have isoforms (BCL-XS and MCL-1S) that had apoptotic functions. K562 cells expressed only the anti-apoptotic MCL1 transcript and the expression was not affected by SF1–8 (not shown). […] Another frequently studied gene involved in apoptosis regulation is survivin.[48],[49]
Figure 4. RNA-seq experiment of K562-U2AF1^S34F cells treated with SF1–8 and the western blot of select genes. […] (C) Western blots of c-CBL, ATF3, and BCL-2 in K562-U2AF1^wt, K562-U2AF1^S34F treated with SF1–8. (D) Heatmap of top 99 differentially regulated genes in K562-U2AF1^S34F treated with SF1–8.

[19] = system: healthy control cells; experiment: Toxicity in healthy control cells; assay type: cell-based, human; conditions: as much as 10 μM
Text: as §2, §3

[20] = system: K562-U2AF1^wt; experiment: Growth inhibition / cell viability (CellTiter-Glo); assay type: cell-based
Text: as §2, §3

[21] = system: K562-U2AF1^S34F; experiment: Growth inhibition / cell viability (CellTiter-Glo); assay type: cell-based
Text: as §2, §3

[22] = Fig. 2C, SD of 2 independent experiments in parentheses, read-out: IC50 U2AF1
[23] = representative titration curves, Fig. 2B, read-out: IC50 against U2AF1-UHM

SMILES: CCCn1nc(C2(C)CCNCC2)cc1O [7c]
IC50 [1, 22]: 53.1 µM
IC50 [2]: 62.4 µM
IC50 [3]: 541 µM
IC50 [4]: 310 µM

SMILES: CC1(c2cc(O)[nH]n2)CCNCC1 [compound 9]
ΔTm at 200 µM [5]: 1.5 °C
IC50 [1, 22]: 343 ± 62.4 µM
IC50 [1, 23]: 328 µM
IC50 [2]: > 1000 µM
IC50 [3]: 992 µM
IC50 [4]: 686 µM

SMILES: CC(C)n1nc(C2(C)CCNCC2)cc1O [7d]
IC50 [1, 22]: 863 µM
IC50 [2]: 694 µM
IC50 [3]: 1090 µM
IC50 [4]: 791 µM

The next lines start with results.

IC50 [1, 22]: 46.5 µM
IC50 [2]: 179 µM
IC50 [3]: 592 µM
IC50 [4]: 335 µM
SMILES: CCC1(c2cc(O)nn2C)CCNCC1 [8e]

IC50 [1, 22]: 232 µM
IC50 [2]: 799 µM
IC50 [3]: > 1000 µM
IC50 [4]: > 1000 µM
SMILES: CCn1nc(O)cc1C1(C)CCNCC1 [8b]

ΔTm at 200 µM [5]: 2.02 °C
IC50 [1, 22]: 59.33 ± 0.02 µM
selectivity against three other UHM domains ([1]; U2AF1-UHM vs RBM39-UHM, SPF45-UHM, PUF60-UHM): 4–12 fold
IC50 [1, 23]: 59.3 µM
IC50 [6]: > 100 µM
IC50 [7]: > 100 µM
IC50 ([21]; dose titration, CellTiter-Glo): 1.98 µM
IC50 [2]: 748 µM
IC50 [3]: 523 µM
IC50 [4]: 221 µM
SMILES: Cn1nc(C2(C)CCNCC2)cc1O [SF1–8]
toxicity in colony formation assay [8]: no significant toxicity
effect on cell viability [9]: no activity
effect on cell viability [10]: reduced cell viability
effect on cell viability [11]: no activity
effect on cell viability [12]: but not their isogenic wild-type cells
effect on cell viability [13]: selectively decreased the viability
effect on cell viability [14]: no activity
effect on cell viability [15]: reduced cell viability
effect on cell viability [16]: no activity
viability at 10 µM [17]: 20%
ATF-3 protein level [18]: increase of ATF-3 was confirmed
BCL2 protein level [18]: decreased BCL2
c-CBL protein level [18]: no change of c-CBL
effect on viable cells [19]: did not significantly decrease 20% of viable cells
effect on cell viability ([20]; Fig. 3A): but not their isogenic wild-type cells
activity in dose titration ([20]; dose titration, CellTiter-Glo): no activity
effect on cell viability ([21]; Fig. 3A): selectively decreased the viability
